# Experimental data published in ChEMBL document CHEMBL4699440, “Comprehensive review on the anti-bacterial activity of 1,2,3-triazole hybrids” (Eur J Med Chem, 2019).
# Legend:
# Format in all cases: functional
# Escherichia coli [1] = assay: Antibacterial activity against Escherichia coli by agar dilution method
# Bacillus cereus [2] = assay: Antibacterial activity against Bacillus cereus by agar dilution method
# Staphylococcus aureus [3] = assay: Antibacterial activity against Staphylococcus aureus by agar dilution method
# Pseudomonas aeruginosa [4] = assay: Antibacterial activity against Pseudomonas aeruginosa by agar dilution method
# Pseudomonas fluorescens = assay: Antibacterial activity against Pseudomonas fluorescens NCIM 2173 incubated for 24 hrs
# Bacillus cereus [5] = assay: Antibacterial activity against Bacillus cereus ATCC 6630 incubated for 24 hrs
# Curvularia lunata = assay: Antifungal activity against Curvularia lunata NCIM 1131 incubated for 48 hrs
# Aspergillus niger = assay: Antifungal activity against Aspergillus niger NCIM 1196 incubated for 48 hrs
# Micrococcus luteus = assay: Antibacterial activity against Micrococcus Luteus ATCC 398 incubated for 24 hrs
# Staphylococcus aureus [6] = assay: Antibacterial activity against Staphylococcus aureus ATCC 29737 incubated for 24 hrs
# Penicillium chrysogenum = assay: Antifungal activity against Penicillium chrysogenum NCIM 723 incubated for 48 hrs
# Escherichia coli [7] = assay: Antibacterial activity against Escherichia coli NCIM 2256 incubated for 24 hrs
# [8] = tested on: Sphingomonas paucimobilis; assay: Antibacterial activity against Flavobacterium devorans ATCC 10829 incubated for 24 hrs
# Staphylococcus aureus [9] = assay: Antibacterial activity against methicillin-resistant Staphylococcus aureus ATCC 25923 by CLSI-based broth dilution method
# Escherichia coli [10] = assay: Antibacterial activity against ESBL-producing Escherichia coli ATCC 25925 by CLSI-based broth dilution method
# Pseudomonas aeruginosa [11] = assay: Antibacterial activity against Pseudomonas aeruginosa ATCC 27853 by CLSI-based broth dilution method
# Staphylococcus aureus [12] = assay: Antibacterial activity against methicillin-sensitive Staphylococcus aureus by CLSI-based broth dilution method
# Klebsiella pneumoniae = assay: Antibacterial activity against Klebsiella pneumoniae ATCC 27736 by CLSI-based broth dilution method
# Enterococcus faecium = assay: Antibacterial activity against vancomycin-resistant Enterococcus faecium by CLSI-based broth dilution method; settings: time 24 hrs
Compound,MIC (Escherichia coli [1]) [µg/mL],MIC (Bacillus cereus [2]) [µg/mL],MIC (Staphylococcus aureus [3]) [µg/mL],MIC (Pseudomonas aeruginosa [4]) [µg/mL],MIC (Pseudomonas fluorescens) [µg/mL],MIC (Bacillus cereus [5]) [µg/mL],MIC (Curvularia lunata) [µg/mL],MIC (Aspergillus niger) [µg/mL],MIC (Micrococcus luteus) [µg/mL],MIC (Staphylococcus aureus [6]) [µg/mL],MIC (Penicillium chrysogenum) [µg/mL],MIC (Escherichia coli [7]) [µg/mL],MIC [8] [µg/mL],further results
O=C(N/N=C/c1cn(-c2ccccc2)nc1-c1ccc(Br)cc1)c1cccc(-n2cc(-c3ccccc3)nn2)c1,2,2,2,2,–,–,–,–,–,–,–,–,–,–
Cc1cc(OCc2cn(Cc3cccc(Cl)c3)nn2)cc2oc(=O)ccc12,–,–,–,–,2,2,2,2,2,2,2,2,2,–
Cc1cc(OCc2cn(Cc3ccc(Br)cc3)nn2)cc2oc(=O)ccc12,–,–,–,–,2,2,2,2,2,2,2,2,2,–
Cc1ccc(-c2nn(-c3ccccc3)cc2/C=N/NC(=O)c2cccc(-n3cc(-c4ccccc4)nn3)c2)cc1,2,2,2,2,–,–,–,–,–,–,–,–,–,–
Cc1cc(OCc2cn(Cc3cccc([N+](=O)[O-])c3)nn2)cc2oc(=O)ccc12,–,–,–,–,2,2,2,2,2,2,2,2,2,–
O=C(N/N=C/c1cn(-c2ccccc2)nc1-c1ccc(O)cc1O)c1cccc(-n2cc(-c3ccccc3)nn2)c1,2,2,2,2,–,–,–,–,–,–,–,–,–,–
N=C(N)c1ccc2[nH]c(-c3ccc(OCc4cn(Cc5ccccc5)nn4)cc3)nc2c1,–,–,–,–,–,–,–,–,–,–,–,–,–,MIC (Staphylococcus aureus [9]): 16 µg/mL; MIC (Escherichia coli [10]): 16 µg/mL; MIC (Pseudomonas aeruginosa [11]): 16 µg/mL; MIC (Staphylococcus aureus [12]): 16 µg/mL; MIC (Klebsiella pneumoniae): 16 µg/mL; MIC (Enterococcus faecium): 16 µg/mL
Cc1cc(OCc2cn(Cc3ccccc3)nn2)cc2oc(=O)ccc12,–,–,–,–,2,2,2,2,2,2,2,2,2,–
O=C(N/N=C/c1cn(-c2ccccc2)nc1-c1ccccc1)c1cccc(-n2cc(-c3ccccc3)nn2)c1,8,8,8,8,–,–,–,–,–,–,–,–,–,–
O=c1cc(OCc2cn(Cc3ccc(Cl)cc3)nn2)c2ccccc2o1,–,–,–,–,2,2,2,2,2,2,2,2,2,–
O=c1cc(OCc2cn(Cc3ccc([N+](=O)[O-])cc3)nn2)c2ccccc2o1,–,–,–,–,2,2,2,2,2,2,2,2,2,–
O=C(N/N=C/c1cn(-c2ccccc2)nc1-c1ccc(Cl)cc1)c1cccc(-n2cc(-c3ccccc3)nn2)c1,4,4,4,4,–,–,–,–,–,–,–,–,–,–
CC(C)NC(=N)c1ccc2[nH]c(-c3ccc(OCc4cn(-c5ccc(Cl)cc5)nn4)cc3)nc2c1,–,–,–,–,–,–,–,–,–,–,–,–,–,MIC (Staphylococcus aureus [9]): 8 µg/mL; MIC (Escherichia coli [10]): 8 µg/mL; MIC (Pseudomonas aeruginosa [11]): 8 µg/mL; MIC (Staphylococcus aureus [12]): 8 µg/mL; MIC (Klebsiella pneumoniae): 8 µg/mL; MIC (Enterococcus faecium): 8 µg/mL
Cc1cc(OCc2cn(Cc3ccc([N+](=O)[O-])cc3)nn2)cc2oc(=O)ccc12,–,–,–,–,2,2,2,2,2,2,2,2,2,–
CC(C)NC(=N)c1ccc2[nH]c(-c3ccc(OCc4cn(Cc5ccccc5)nn4)cc3)nc2c1,–,–,–,–,–,–,–,–,–,–,–,–,–,MIC (Staphylococcus aureus [9]): 8 µg/mL; MIC (Escherichia coli [10]): 8 µg/mL; MIC (Pseudomonas aeruginosa [11]): 8 µg/mL; MIC (Staphylococcus aureus [12]): 8 µg/mL; MIC (Klebsiella pneumoniae): 8 µg/mL; MIC (Enterococcus faecium): 8 µg/mL
COc1ccc(-n2cc(COc3ccc(-c4nc5cc(C6=NCCN6)ccc5[nH]4)cc3)nn2)cc1,–,–,–,–,–,–,–,–,–,–,–,–,–,MIC (Staphylococcus aureus [9]): 8 µg/mL; MIC (Escherichia coli [10]): 8 µg/mL; MIC (Pseudomonas aeruginosa [11]): 8 µg/mL; MIC (Staphylococcus aureus [12]): 8 µg/mL; MIC (Klebsiella pneumoniae): 8 µg/mL; MIC (Enterococcus faecium): 8 µg/mL
COc1ccc(-c2nn(-c3ccccc3)cc2/C=N/NC(=O)c2cccc(-n3cc(-c4ccccc4)nn3)c2)cc1,2,2,2,2,–,–,–,–,–,–,–,–,–,–
CC(C)NC(=N)c1ccc2[nH]c(-c3ccc(OCc4cn(-c5ccccc5)nn4)cc3)nc2c1,–,–,–,–,–,–,–,–,–,–,–,–,–,MIC (Staphylococcus aureus [9]): 8 µg/mL; MIC (Escherichia coli [10]): 8 µg/mL; MIC (Pseudomonas aeruginosa [11]): 8 µg/mL; MIC (Staphylococcus aureus [12]): 8 µg/mL; MIC (Klebsiella pneumoniae): 8 µg/mL; MIC (Enterococcus faecium): 8 µg/mL
O=C(N/N=C/c1cn(-c2ccccc2)nc1-c1cccc2ccccc12)c1cccc(-n2cc(-c3ccccc3)nn2)c1,2,2,2,2,–,–,–,–,–,–,–,–,–,–
